From ChEMBL document CHEMBL3430912, “GSK Tres Cantos Anti-Kinetoplastid Screening (TCAKS) Data”
pIC50: −log10 of the molar value.

Experiments:
[1] = target: Sterol 14-alpha demethylase (Trypanosoma cruzi (strain CL Brener), UniProt Q7Z1V1); assay: GSK_TCAKS: pIC50 CYP51 from Trypanosoma cruzi.; format: functional
[2] = tested on: Trypanosoma brucei brucei; assay: GSK_TCAKS: pIC50 Trypanosoma brucei viability assay using fluorescence intensity. Assay plates (1536-well) were prepared by dispensing 25nL of compound solution per well using an Echo acoustic dispenser (Labcyte).; format: functional, organism-based; details: Lister 427, 2 h
Trypanosoma cruzi [3] = assay: (§1) GSK_TCAKS: pIC50 Trypanosoma cruzi Imaging: Amastigotes/Cell. […] Cells were then washed once with PBS before infection. T. cruzi trypomastigotes, collected at days 5 to 8 after infection from LLC-MK2 parasite infected cultures, were allowed to swim out for 4h at 37C from a centrifuged pellet (2,500 rpm/10 min/room temperature). Trypomastigotes were then collected and counted in a CASY Cell Counter. Trypomastigotes, in supplemented DMEM, were added to H9c2 cultures in a multiplicity of infection of 1 and incubated for 18 h. Cells were washed once with PBS before incubation of the infected H9c2 monolayer with trypsin (Life-Technologies) to detach cells from the flask. Cells were counted in a CASY Cell Counter using a 150 um capillary and their density set at 5 * 10^4 cells per mL in supplemented assay DMEM. Infected H9c2 were dispensed into 384-well poly-lysine coated assay plates at 50uL per well using a Multidrop Combi dispenser. After seeding them, the plates were incubated at 37C, 5% CO2 for 72h. Cultures were then fixed and stained by addition of 50 uL of a solution containing 8% formaldehyde and 4 uM DRAQ5 DNA dye (BioStatus, UK) per well. […] Five images were collected per well for reliable statistical analysis. Automated image analysis was performed with a script developed on Acapella High Content Imaging and Analysis Software (PerkinElmer). Output: number of amastigotes per cell as infection level measurement.; format: functional, organism-based, Rattus norvegicus; details: H9c2, 4 h
NIH3T3 = assay: GSK_TCAKS: pIC50 NIH 3T3 cell line viability assay using luminiscence. Tissue culture surface treated assay plates (1536-well) were used. […] The 100% cells survival control was determined exposing the host-cells to a 0.5% DMSO concentration, whereas the 100% toxicity control was achieved by seeding the cells in presence of Amphotericin B at 50uM. Plates were incubated for four days at 37C, 5% CO2. The assay readout was developed by addition of 5uL of CellTiter-Glo Reagent following the manufacturer's instructions. Luminiscence was measured using a ViewLux.; format: functional, cell-based; details: Mus musculus, NIH3T3, 96 h
[4] = GSK_TCAKS: pIC50 HepG2 human cell line viability assay using luminiscence. […] Seeding density was checked to ensure that new mono-layers were not more than 50% confluent at the time of harvesting. Cell suspension was added to 500 mL of the same medium at a final density of 1.2 * 10^5 cells/mL. This cell suspension was dispensed (25 uL, 3000 cells per well) into 384-well clear-bottom plates using a Multidrop Combi dispenser. Prior to addition of the cell suspension, the screening compounds (250 nL) were pre-dispensed into the plates with an Echo liquid handler. Plates were incubated for 48 h at 37C, 5% CO2. After incubation, plates equilibrated at room temperature for 30 min before proceeding to develop the luminescent signal. The signal developer, CellTiter-Glo Reagent, was allowed to equilibrate at room temperature for 30 min and added to the plates (25uL per well) using a Multidrop Combi dispenser. Plates were left for 10 min at room temperature for stabilization and then read using a ViewLux.; format: toxicity, cell-based
Trypanosoma cruzi [5] = assay: as §1, with “H2C9” for “Trypanosoma cruzi”, “H9c2 Host Cardiomyocytes.” for “Amastigotes/Cell.”, “Number” for “number”, “H9c2 Host Cardiomyocytes nuclei to determine drug-related cytotoxicity.” for “amastigotes per cell as infection level measurement.”; format: functional, organism-based, Rattus norvegicus; details: H9c2, 4 h
Trypanosoma cruzi [6] = assay: GSK_TCAKS: pIC50 Trypanosoma cruzi viability assay using beta-GAL activity. This assay was run at single shot at 5uM compound concentration per well. The biological reagents consisted of NIH-3T3 host cells and trypomastigotes parasitic cells; both cell types were set to a 3.3 * 10^5 cells/mL dilution in assay DMEM by means of a CASY cell counter device using a 60um capillary. 6 uL of the mixture were dispensed per well (about 1 * 10^3 host-cells and 1 * 10^3 parasites) with a Multidrop Combi dispenser. […] In all wells, the percentage of DMSO never exceeded 0.5%. Plates incubated for four days at 37C, 5% CO2. The substrate used for the assay fluorescence intensity (FLINT) readout was resorufin-beta-D-galactopiranoside (Sigma-Aldrich) at 5uM per well. It was diluted in PBS supplemented with the soft detergent Igepal (Fluka).; format: functional, organism-based, Mus musculus; details: Tulahuen, NIH3T3
Leishmania donovani [7] = assay: GSK_TCAKS: pIC50 Leishmania donovani viability assay using fluorescence intensity. Assay plates (1536-well) were prepared by adding 30nL per well of compound. For single shot assay, the final compound concentration was 5uM. […] Briefly, eGFP LdBOB axenic amastigotes were harvested, fixed and counted in a CASY cell counter (Roche-Applied Science). A final concentration of 1.5 * 10^5 cells per well were prepared in amastigote media containing 500 U/mL penicillin/streptomycin (Invitrogen) and 6uL was dispensed to each experimental well using a Multidrop Combi dispenser (Thermo Scientific). 6uL of assay media was dispensed to control columns used as reference for 100% compound response. Following incubation for 72 h at 37C, 5% CO2, 2 uL of resazurin was added to each well at a final concentration of 0.5 mM in phosphate buffered saline (PBS) with IGEPAL (Sigma-Aldrich), 0.05% (v/v).; format: functional, organism-based
Leishmania donovani [8] = assay: GSK_TCAKS: pIC50 Leishmania donovani Imaging: Infected Macrophages. Assay plates (384-well) were prepared by adding 250nL of compound to each well. For single shot assay, the final compound concentration was 5 uM. […] Automated image analysis was performed with a script developed on Acapella High Content Imaging and Analysis Software (PerkinElmer). Output: Percent of infected macrophage cells were reported for each well.; format: functional, organism-based, Homo sapiens; details: THP-1
Trypanosoma cruzi [9] = assay: GSK_TCAKS: pIC50 Trypanosoma cruzi Imaging: Infected Cells. […] Cells were then washed once with PBS before infection. T. cruzi trypomastigotes, collected at days 5 to 8 after infection from LLC-MK2 parasite infected cultures, were allowed to swim out for 4h at 37C from a centrifuged pellet (2,500 rpm/10 min/room temperature). Trypomastigotes were then collected and counted in a CASY Cell Counter. Trypomastigotes, in supplemented DMEM, were added to H9c2 cultures in a multiplicity of infection of 1 and incubated for 18 h. Cells were washed once with PBS before incubation of the infected H9c2 monolayer with trypsin (Life-Technologies) to detach cells from the flask. Cells were counted in a CASY Cell Counter using a 150 um capillary and their density set at 5 * 10^4 cells per mL in supplemented assay DMEM. Infected H9c2 were dispensed into 384-well poly-lysine coated assay plates at 50uL per well using a Multidrop Combi dispenser. After seeding them, the plates were incubated at 37C, 5% CO2 for 72h. Cultures were then fixed and stained by addition of 50 uL of a solution containing 8% formaldehyde and 4 uM DRAQ5 DNA dye (BioStatus, UK) per well. […] Five images were collected per well for reliable statistical analysis. Automated image analysis was performed with a script developed on Acapella High Content Imaging and Analysis Software (PerkinElmer). Output: percentage of infected cells per well as a second infection marker.; format: functional, organism-based, Rattus norvegicus; details: H9c2, 4 h
[10] = tested on: Trypanosoma brucei brucei; assay: GSK_TCAKS: pIC50 Trypanosoma brucei viability assay using luminiscence. Assay plates (1536-well) were prepared. T. brucei cultures were harvested and counted in a CASY cell counter. A parasite suspension was prepared at a final concentration of 5 * 10^4 cells/mL in complete HMI9 medium and 6uL was dispensed to all wells containing compounds using a Multidrop Combi dispenser. 6uL of HMI9 media with 0.4% DMSO were dispensed to control columns. Plates were incubated for 24 h at 37C, 5% CO2 then tempered for 10 min at room temperature. ATP content was quantified by adding 4 uL of CellTiter-Glo Reagent (Promega) according to the manufacturer's instructions. Luminescence was measured using a ViewLux.; format: functional, organism-based; details: Lister 427, CASY
Leishmania donovani [11] = assay: GSK_TCAKS: pIC50 Leishmania donovani Imaging: Amastigotes/Macrophages. Assay plates (384-well) were prepared by adding 250nL of compound to each well. For single shot assay, the final compound concentration was 5 uM. […] Automated image analysis was performed with a script developed on Acapella High Content Imaging and Analysis Software (PerkinElmer). Output: Average number of amastigotes per macrophage cell were reported for each well.; format: functional, organism-based, Homo sapiens; details: THP-1
Leishmania donovani [12] = assay: GSK_TCAKS: pIC50 Leishmania donovani Imaging: THP-1 Host Macrophages. Assay plates (384-well) were prepared by adding 250nL of compound to each well. For single shot assay, the final compound concentration was 5 uM. […] Automated image analysis was performed with a script developed on Acapella High Content Imaging and Analysis Software (PerkinElmer). Output: THP-1 cell count were reported for each well.; format: functional, organism-based, Homo sapiens

Sequence of Sterol 14-alpha demethylase (Q7Z1V1 whole entry): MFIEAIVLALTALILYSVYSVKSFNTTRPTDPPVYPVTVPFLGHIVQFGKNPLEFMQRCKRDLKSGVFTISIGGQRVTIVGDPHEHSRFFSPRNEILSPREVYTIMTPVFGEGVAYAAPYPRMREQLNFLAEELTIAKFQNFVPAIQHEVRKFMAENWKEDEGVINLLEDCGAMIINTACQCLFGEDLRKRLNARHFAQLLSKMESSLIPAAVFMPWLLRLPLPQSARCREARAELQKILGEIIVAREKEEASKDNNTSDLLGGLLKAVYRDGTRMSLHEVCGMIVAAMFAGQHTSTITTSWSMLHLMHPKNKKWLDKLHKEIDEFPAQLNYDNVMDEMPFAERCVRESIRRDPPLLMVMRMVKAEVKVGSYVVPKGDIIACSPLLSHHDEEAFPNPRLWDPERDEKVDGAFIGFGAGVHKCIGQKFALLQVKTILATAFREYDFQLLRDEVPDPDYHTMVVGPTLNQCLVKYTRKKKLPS

Structure (SMILES)	pIC50 [1]	pIC50 [2]	pIC50 (Trypanosoma cruzi [3])	pIC50 (NIH3T3)	IC50 at 48 h [4] [µM]	pIC50 (Trypanosoma cruzi [5])	pIC50 (Trypanosoma cruzi [6])	pIC50 (Leishmania donovani [7])	pIC50 (Leishmania donovani [8])	pIC50 (Trypanosoma cruzi [9])	pIC50 [10]	pIC50 (Leishmania donovani [11])	pIC50 (Leishmania donovani [12])
O=C(c1ccc(OCCCc2cnc[nH]2)cc1)C1CC1	7.30	5.00	5.90	4.90	> 100	< 4.30	6.45	< 4.30	< 4.30	5.80	< 4.40	5.10	< 4.30
Cc1cc(C)c(C#N)c(SCC(=O)c2ccc3c(c2)OCO3)n1	< 4.00	4.70	6.40	< 4.30	> 100	< 4.30	5.70	< 4.30	< 4.30	6.10	4.80	< 4.30	< 4.30
Cc1cc(Br)cc(C(=O)c2c(C(C)C)c(=O)[nH]c(=O)n2Cc2ccnc(N)c2)c1	7.80	4.90	6.60	4.80	> 100	< 4.30	6.40	< 4.30	4.50	6.50	4.60	4.70	4.40
N#Cc1ccc(S(=O)(=O)N2CCN(Cc3cccc(-c4ccncc4)c3)CC2)cc1	7.10	< 4.40	6.70	4.90	> 100	4.60	6.40	< 4.30	< 4.30	6.60	4.70	5.90	< 4.30
CN(C)Cc1ccc(N2CCC(NS(=O)(=O)c3ccc(Cl)cc3)CC2)cc1	< 4.00	4.60	6.60	4.80	50.1	4.90	6.10	4.40	< 4.30	6.50	4.50	4.60	4.60
Oc1nccc2ccc(-c3ccncc3)cc12	7.80	4.50	6.60	< 4.30	> 100	< 4.30	6.70	< 4.30	< 4.30	6.60	< 4.40	4.70	4.40
CNc1cc(Cn2c(C(=O)c3cc(C)cc(Cl)c3)c(C(C)C)c(=O)[nH]c2=O)ccn1	7.50	4.60	7.70	5.00	> 100	< 4.30	7.40	< 4.30	4.70	7.70	4.60	4.90	< 4.30
O=c1[nH]cnc2c([C@@H]3O[C@H](CO)[C@@H](O)[C@H]3O)n[nH]c12 [FORMYCIN B]	< 4.00	8.50	6.50	< 4.30	> 100	< 4.30	6.85	6.40	5.70	6.30	8.30	6.40	< 4.30
CC(C)(C)C(O)(CCc1ccc(Cl)cc1)Cn1cncn1 (configuration not stated) [TEBUCONAZOLE]	6.90	< 4.40	6.70	< 4.30	> 100	< 4.30	6.90	5.50	< 4.30	6.60	< 4.40	< 4.30	< 4.30
